Measured values: US20240041042A1, “1-(PYRIDYL)-5-AZINYLPYRAZOLE DERIVATIVES, AND THEIR USE FOR CONTROL OF UNDESIRED PLANT GROWTH” (Bayer Aktiengesellschaft, priority 2020, published 2024)
Read-outs that look alike come from different tables or passages of the source.

Tests used:
Type in all cases: in vivo
[1] = test system: Abutilon theophrasti (ABUTH); assay: Post-emergence herbicidal action against ABUTH; conditions: visual rating about 3 weeks after treatment vs untreated controls (100% = plants have died, 0% = like control plants)
How it was run: (§1)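 Greenhouse plants sprayed at the one-leaf stage, 2–3 weeks after sowing, with WP or EC formulations plus 0.5% additive at 600 l/ha water. Activity rated visually after about 3 weeks versus untreated controls (100% = dead, 0% = like control), at 320 g/ha or lower.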

[2] = test system: Alopecurus myosuroides (ALOMY); assay: Post-emergence herbicidal action against ALOMY; conditions: visual rating about 3 weeks after treatment vs untreated controls (100% = plants have died, 0% = like control plants)
How it was run: as §1

[3] = test system: Oryza sativa (ORYSA); conditions: crop plant compatibility
How it was run: (§2)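 Visual rating (% effect vs. untreated plants; 100% = plant death) made about 3 weeks after treatment. Plants had been sprayed at one-leaf stage, 2–3 weeks post-sowing, with aqueous WP/EC preparations containing 0.5% additive, 600 l/ha water volume; a, b, c mark dose levels.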

[4] = test system: Polygonum convolvulus (POLCO); assay: Post-emergence herbicidal action against POLCO
How it was run: as §1

[5] = test system: Matricaria inodora (MATIN); assay: Post-emergence herbicidal action against MATIN
How it was run: as §1

[6] = test system: Setaria viridis (SETVI); assay: Post-emergence herbicidal action against SETVI
How it was run: as §1

[7] = test system: Echinochloa crus-galli (ECHCG); assay: Post-emergence herbicidal action against ECHCG
How it was run: as §1

[8] = test system: Viola tricolor (VIOTR); assay: Post-emergence herbicidal action against VIOTR
How it was run: as §1

[9] = test system: Lolium rigidum (LOLRI); assay: Post-emergence herbicidal action against LOLRI
How it was run: as §1

[10] = test system: Digitaria sanguinalis (DIGSA); assay: Post-emergence herbicidal action against DIGSA; conditions: visual rating about 3 weeks after treatment
Description: Seeds of monocotyledonous and dicotyledonous weeds and crop plants are placed in sandy loam in plastic or organic planting pots, covered with soil and cultivated in a greenhouse under controlled growth conditions. 2 to 3 weeks after sowing, the test plants are treated at the one-leaf stage. The compounds of the invention, formulated in the form of wettable powders (WP) or as emulsion concentrates (EC), are then sprayed onto the green parts of the plants as aqueous suspension or emulsion with addition of 0.5% additive at a water application rate of 600 l/ha (converted). After the test plants have been kept in the greenhouse under optimum growth conditions for about 3 weeks, the activity of the preparations is rated visually in comparison to untreated controls. For example, 100% activity=the plants have died, 0% activity=like control plants.
Tables B1 to B13 below show the effects of selected compounds of the general formula (I) according to Table 1 on various harmful plants and at an application rate corresponding to 320 g/ha or lower, which were obtained by the experimental procedure mentioned above. The appendices “a”, “b” and “c” give differentiation by dosage used with otherwise the same harmful plants tested.

[11] = test system: Pharbitis purpurea (PHBPU); assay: Post-emergence herbicidal action against PHBPU
How it was run: as §1

[12] = test system: Zea mays (ZEAMX); conditions: 20 g/ha, ZEAMX, effect in comparison to untreated controls
How it was run: as §2

[13] = test system: Avena fatua (AVEFA); assay: Post-emergence herbicidal action against AVEFA; conditions: visual rating about 3 weeks after treatment
How it was run: as §1

[14] = test system: Verconica persica (VERPE); assay: Post-emergence herbicidal action against VERPE
How it was run: as §1

[15] = test system: Amaranthus retroflexus (AMARE); assay: Post-emergence herbicidal action against AMARE
How it was run: as §1

[16] = 20 g/ha, effect vs untreated controls

Structure (SMILES) | Post-emergence action against ABUTH in % ([1]; 320 g/ha) [%] | Post-emergence action against ALOMY in % ([2]; 320 g/ha) [%] | Post-emergence action against ORYSA in % [3, 16] [%] | Post-emergence action against POLCO in % ([4]; dosage 320 g/ha) [%] | Post-emergence action against MATIN in % ([5]; dosage 320 g/ha) [%] | Post-emergence action against SETVI in % ([6]; dosage 80 g/ha) [%] | Post-emergence action against SETVI in % ([6]; dosage 320 g/ha) [%] | Post-emergence action against ECHCG in % ([7]; dosage 80 g/ha) [%] | Post-emergence action against ECHCG in % ([7]; dosage 320 g/ha) [%] | Post-emergence action against VIOTR in % ([8]; 320 g/ha) [%] | Post-emergence action against LOLRI in % ([9]; dosage 80 g/ha) [%] | Post-emergence action against LOLRI in % ([9]; dosage 320 g/ha) [%] | Post-emergence action against DIGSA in % ([10]; 80 g/ha) [%] | Post-emergence action against DIGSA in % ([10]; 320 g/ha) [%] | Post-emergence action against PHBPU in % ([11]; dosage 320 g/ha) [%] | Post-emergence action against ZEAMX in % (crop plant compatibility) [12] [%] | Post-emergence action against AVEFA in % ([13]; 320 g/ha) [%] | Post-emergence action against VERPE in % ([14]; 320 g/ha, VERPE) [%] | Post-emergence action against VERPE in % ([14]; dosage 80 g/ha) [%] | further results
COC(=O)C(C)OC(=O)C(C)Oc1nn(-c2ccccn2)c(-c2cncc(F)c2)c1Br (mixture of isomers) [Example I-176] | 80 | 90 | 0 | 80 | 80 | 80 | 80 | 80 | 90 | 80 | 80 | 80 | 80 | 90 | – | – | – | – | – | Post-emergence action against ORYSA in % ([3]; 80 g/ha, effect in comparison to untreated controls): 10%; Post-emergence action against POLCO in % ([4]; dosage 80 g/ha): 80%
COC(=O)[C@@H](C)Oc1nn(-c2ccccn2)c(-c2ccc(F)nc2)c1Br [Example I-252] | – | 90 | 10 | 80 | 80 | 80 | 80 | 80 | 90 | 80 | 80 | 80 | 90 | 90 | 90 | 10 | 80 | 80 | 80 | Post-emergence action against ALOMY in % ([2]; 80 g/ha): 80%; Post-emergence action against AVEFA in % ([13]; 80 g/ha): 80%
COC(=O)COc1nn(-c2ncccc2F)c(-c2ccc(F)nc2)c1Cl [Example I-304] | 90 | 90 | – | – | 90 | 90 | 90 | 80 | 90 | 90 | – | 90 | 90 | 90 | 90 | 20 | 90 | 90 | 80 | Post-emergence action against PHBPU in % ([11]; dosage 80 g/ha): 80%; Post-emergence action against ABUTH in % ([1]; 80 g/ha): 80%; Post-emergence action against AMARE in % ([15]; 80 g/ha, visual rating about 3 weeks after treatment vs untreated controls (100% = plants have died, 0% = like control plants)): 80%; Post-emergence action against AMARE in % ([15]; 320 g/ha, visual rating about 3 weeks after treatment): 90%; Post-emergence action against MATIN in % ([5]; dosage 80 g/ha): 90%; Post-emergence action against VIOTR in % ([8]; 80 g/ha): 80%
